Data published in patent publication US20160311886A1, “Constructs Binding to Phosphatidylserine and Their Use in Disease Treatment and Imaging” (Board of Regents, The University of Texas System, priority 2005, published 2016).

Experiments:
bEnd.3 cells = experiment: Induction of PS exposure, 125I-annexin V binding; format: cell-based, mouse
Experimental: (§1) All reagents were diluted in medium containing 10% serum and incubated with the cells at 37° C. for 24 h.
(§2) To study the effect of hypoxia, cells were seeded on 24 well plates and were incubated in a humidified normoxic atmosphere (21% O2, 5% CO2) for 48 h before being transferred to a humidified hypoxic atmosphere (1% O2, 5% CO2, 94% N2) in a sealed chamber (Billups Rothenberg Inc., Del Mar, Ca). Cells were incubated in a hypoxic chamber for 24 h at 37° C. and were then returned to a normoxic environment for 4 h at 37° C. The cells were compared to a parallel culture from an identical passage, seeded on the same day and maintained entirely under normoxic conditions. In some studies, IL-1α (10 ng/ml) and TNFα (20 ng/ml) were added to the medium before transfer to the hypoxic chamber.
(§3) After treatment with the reagents described above, treated and control cells were incubated with 7.1 pmoles of ^125I-labeled annexin V (200 μl/well) in the binding buffer. After 2 h incubation at room temperature, cells were washed extensively and dissolved in 0.5 M of NaOH. The entire volume of 0.5 ml was transferred to plastic tubes and counted in a gamma counter. Non-specific binding was determined in the presence of 5 mM EDTA and was subtracted from experimental values. The results were expressed as net pmoles of cell-bound annexin V, normalized per 1×10^6 cells.
(§4) Maximal binding of annexin V was determined on cells simultaneously treated with actinomycin D and TNFα (50 ng/ml of each component). As has been previously reported, these agents cause apoptosis and PS exposure in 90-100% of endothelial cells (Lucas et al., 1998). Basal binding of ^125I-annexin V to untreated cells was determined in the presence of medium with 10% serum. The amount of ^125I-annexin V that bound to the untreated cultures was subtracted from that in the treated cultures. Exposure of PS was calculated according to the following formula: cell-bound annexin V (pmoles) under experimental conditions divided by maximal annexin V binding (pmoles), multiplied by 100. Each study was performed in duplicate and was performed at least three times. Mean values were calculated. The SE of the mean values from three separate experiments was less than 5%.

ABAE cells = experiment: Induction of PS exposure, 125I-annexin V binding; format: cell-based, bovine
Experimental: as §1, §2, §3, §4

[1] = Hypoxia (1% O2) + TNFα 20 ng/ml
[2] = Hypoxia (1% O2) + IL-1α 10 ng/ml

| Molecule | 125I-Annexin V (% of Max binding) (bEnd.3 cells; 20 ng/ml, 24 h) | 125I-Annexin V (% of Max binding) (ABAE cells; 20 ng/ml, 24 h) | also measured |
| --- | --- | --- | --- |
| FGF-2: human fibroblast growth factor-2 | 0 % of Max binding | 0 % of Max binding | – |
| GM-CSF: cytokine tested on endothelial cells | – | – | binding of 125I-annexin V above the basal level for untreated cells (ABAE cells; ABAE and bEnd.3 cells): did not increase binding |
| IL-6: interleukin-6 | 0 % of Max binding | 0 % of Max binding | – |
| IL-8: interleukin-8 | 0 % of Max binding | 0 % of Max binding | – |
| IL-10: interleukin-10 | 0 % of Max binding | 0 % of Max binding | – |
| Scatter factor: Recombinant hepatocyte growth factor (HGF or scatter factor) | – | – | 125I-Annexin V (% of Max binding) (bEnd.3 cells; 40 ng/ml, 24 h): 0 % of Max binding; 125I-Annexin V (% of Max binding) (ABAE cells; 40 ng/ml, 24 h): 0 % of Max binding |
| TGF β1: growth factor tested on endothelial cells | 0 % of Max binding | 0 % of Max binding | – |
| TNFα | 13.7 % of Max binding | 7.4 % of Max binding | 125I-Annexin V (% of Max binding) (bEnd.3 cells; [1]): 36.0 % of Max binding; 125I-Annexin V (% of Max binding) (ABAE cells; [1]): 33.0 % of Max binding |
| Thrombin | – | – | 125I-Annexin V (% of Max binding) (bEnd.3 cells; 50 nM, 24 h): 17.4 % of Max binding; 125I-Annexin V (% of Max binding) (ABAE cells; 50 nM, 24 h): 8.8 % of Max binding |
| VEGF | 0 % of Max binding | 0 % of Max binding | – |
| IL-1α: Recombinant murine interleukin-1 alpha (protein, UniProt P01582 115-270, looked up) Interleukin-1 alpha: SAPYTYQSDLRYKLMKLVRQKFVMNDSLNQTIYQDVDKHYLSTTWLNDLQQEVKFDMYAYSSGGDDSKYPVTLKISDSQLFVSAQGEDQPVLLKELPETPKLITGSETDLIFFWKSINSKNYFTSAAYPELFIATKEQSRVHLARGLPSMTDFQIS | – | – | 125I-Annexin V (% of Max binding) (bEnd.3 cells; 10 ng/ml, 24 h): 7.5 % of Max binding; 125I-Annexin V (% of Max binding) (bEnd.3 cells; [2]): 31.0 % of Max binding; 125I-Annexin V (% of Max binding) (ABAE cells; 10 ng/ml, 24 h): 6.4 % of Max binding; 125I-Annexin V (% of Max binding) (ABAE cells; [2]): 26.0 % of Max binding |
| IL-1β: Recombinant murine interleukin-1 beta (protein, UniProt P10749 118-269, looked up) Interleukin-1 beta: VPIRQLHYRLRDEQQKSLVLSDPYELKALHLNGQNINQQVIFSMSFVQGEPSNDKIPVALGLKGKNLYLSCVMKDGTPTLQLESVDPKQYPKKKMEKRFVFNKIEVKSKVEFESAEFPNWYISTSQAEHKPVFLGNNSGQDIIDFTMESVSS | – | – | 125I-Annexin V (% of Max binding) (bEnd.3 cells; 10 ng/ml, 24 h): 5.5 % of Max binding; 125I-Annexin V (% of Max binding) (ABAE cells; 10 ng/ml, 24 h): 5.8 % of Max binding |
